Results published in ChEMBL document CHEMBL1201862, “PubChem BioAssay data set” (2004).
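48-hour exposure; five concentrations; linearly interpolated endpoints. GI50 marks 50% less growth.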 Active and inactive are the calls of the source. Cut-off read from the data, not from the text of the source: active = GI50 up to about 1.1 µM and inactive = higher.

Tests used:
Test in all cases: NCI-60 cell line screen, 48 h
[1] = test system: RPMI-8226
[2] = test system: SNB-75
[3] = test system: 786-0
[4] = test system: OVCAR-3
[5] = test system: IGROV-1
[6] = test system: OVCAR-4
[7] = test system: SF-295
[8] = test system: NCI-H23
[9] = test system: HT-29
[10] = test system: SNB-19
[11] = test system: COLO 205
[12] = test system: DLD-1
[13] = test system: HOP-92
[14] = test system: OVCAR-8
[15] = test system: Malme-3M
[16] = test system: A549
[17] = test system: U-251
[18] = test system: LOX IMVI
[19] = test system: NCI-H460
[20] = test system: PC-3

Measured: GI50

CCCCCCCCCCCCCCCCCC(=O)NCC(COP(=O)(O)O)OCC (stereo unspecified)
inactive: [1] > 100 µM | [2] 26.1 µM | [3] 30.7 µM | [4] > 100 µM | [5] 49.9 µM | [6] > 100 µM | [7] 18.5 µM | [8] 14.1 µM | [9] 68.7 µM | [10] 47.2 µM | [11] > 100 µM | [12] > 100 µM | [13] 13.7 µM | [14] 36.6 µM | [15] > 100 µM | [16] 31.1 µM

Cc1ccc(C(=O)O/N=C2/CCC/C2=C\c2ccccc2)cc1
inactive: [1] > 100 µM | [2] 69.3 µM | [3] > 100 µM | [4] > 100 µM | [5] > 100 µM | [6] > 100 µM | [7] > 100 µM | [8] > 100 µM | [9] > 100 µM | [17] > 100 µM | [18] > 100 µM | [11] > 100 µM | [12] > 100 µM | [19] > 100 µM | [13] > 100 µM | [14] > 100 µM | [15] > 100 µM | [16] > 100 µM

COc1ccc(/C=C/C(=O)c2sc(Nc3ccc([N+](=O)[O-])cc3)nc2C)cc1
inactive: [1] 19.3 µM | [2] 43.5 µM | [3] 48.8 µM | [4] 26 µM | [5] 66.5 µM | [7] 23.3 µM | [8] 26.5 µM | [17] 65.2 µM | [18] 31.6 µM | [10] 35.3 µM | [11] 45.7 µM | [12] 29.1 µM | [19] 44.6 µM | [13] 20.8 µM | [14] 39.1 µM | [15] 47 µM | [16] 33 µM

Cn1c(CBr)nc2c1C(=O)c1nc(CBr)[nH]c(=O)c1C2=O
inactive: [1] 53 µM | [3] > 100 µM | [5] > 100 µM | [7] > 100 µM | [8] > 100 µM | [9] > 100 µM | [17] > 100 µM | [18] 50.1 µM | [11] > 100 µM | [12] > 100 µM | [19] > 100 µM | [13] 61.4 µM | [14] > 100 µM | [16] > 100 µM

CC(c1ccc(Br)cc1)C(C(=O)O)C(=O)O (stereo unspecified)
inactive: [1] > 100 µM | [2] > 100 µM | [3] > 100 µM | [4] > 100 µM | [5] > 100 µM | [6] > 100 µM | [7] > 100 µM | [8] > 100 µM | [9] > 100 µM | [17] > 100 µM | [18] > 100 µM | [10] > 100 µM | [11] > 100 µM | [12] > 100 µM | [19] > 100 µM | [14] > 100 µM | [15] > 100 µM | [16] > 100 µM

CN1/C(=C/C(=O)c2ccc(Cl)cc2)Nc2ccccc21
inactive: [1] 31.8 µM | [2] > 100 µM | [3] 65.6 µM | [4] 47.1 µM | [5] 38.6 µM | [6] 77.6 µM | [7] 44.9 µM | [8] 43.7 µM | [9] 50.7 µM | [17] 47.3 µM | [18] 39.3 µM | [10] 41.6 µM | [11] 38 µM | [12] 37.4 µM | [19] 32.5 µM | [14] 83.9 µM | [15] > 100 µM | [16] 25.9 µM

O=C1OCN(c2ccccc2)C12CCN(Cc1ccccc1)CC2
inactive: [1] 23.7 µM | [2] 19.4 µM | [3] 26.8 µM | [4] > 10 µM | [5] 59.8 µM | [6] 35.8 µM | [7] 16.4 µM | [8] 53.5 µM | [9] 16.4 µM | [17] 16.9 µM | [18] 14.6 µM | [10] 67 µM | [11] 18.8 µM | [19] 22.9 µM | [13] 39.3 µM | [14] 39.4 µM | [15] 18.1 µM | [20] 24.7 µM | [16] 41.2 µM

N#C/C(=C1\SC(/N=N/c2ccc(Cl)cc2)C(=O)N1c1ccccc1)c1nc2ccccc2[nH]1 (stereo unspecified)
inactive: [2] 25.9 µM | [3] 13.7 µM | [4] 17.1 µM | [6] 23 µM | [7] 18.5 µM | [8] 17.3 µM | [9] 63.8 µM | [17] 20.3 µM | [18] 15 µM | [10] 30.1 µM | [11] 25.2 µM | [12] > 100 µM | [19] 33.7 µM | [13] 18.8 µM | [14] 54.2 µM | [15] 28.4 µM | [16] 29.7 µM

Clc1cc(OC23CC4CC(CC(C4)C2)C3)nc(Cl)n1
inactive: [1] 37.9 µM | [2] 64.6 µM | [3] > 100 µM | [4] 39.2 µM | [5] 27.2 µM | [6] 40.9 µM | [7] > 100 µM | [8] 58.7 µM | [9] 28.9 µM | [17] 55.8 µM | [18] 17 µM | [10] > 100 µM | [11] 56.6 µM | [19] 39.6 µM | [13] 1.7 µM | [14] > 100 µM | [15] > 100 µM | [20] > 100 µM | [16] > 100 µM

CCCCc1ccc(Nc2nc(Cl)c3ncn(COCCOC(C)=O)c3n2)cc1
inactive: [1] 18.2 µM | [2] 24.5 µM | [3] 16 µM | [4] 20.2 µM | [5] 15.7 µM | [6] 33.7 µM | [7] 17.4 µM | [8] 16.2 µM | [9] 17.3 µM | [17] 18.3 µM | [18] 14.8 µM | [10] 19.9 µM | [11] 23.5 µM | [19] 17.6 µM | [13] 2.06 µM | [14] 18.5 µM | [15] 17.3 µM | [20] 16.8 µM | [16] 20.8 µM

Cc1ccc(S(=O)(=O)NC(=O)C2S(=O)(=O)OCCOS2(=O)=O)cc1
inactive: [1] > 100 µM | [2] > 100 µM | [3] > 100 µM | [4] > 100 µM | [6] > 100 µM | [7] > 100 µM | [8] > 100 µM | [9] > 100 µM | [10] > 100 µM | [11] > 100 µM | [12] > 100 µM | [13] > 100 µM | [14] > 100 µM | [15] > 100 µM | [16] > 100 µM

CN(C)c1ccc(/C=c2\sc3nnc(-c4cccnc4)n3c2=O)cc1
inactive: [1] > 100 µM | [2] > 100 µM | [3] > 100 µM | [4] > 100 µM | [5] > 100 µM | [6] > 100 µM | [7] > 100 µM | [8] > 100 µM | [17] > 100 µM | [18] > 100 µM | [10] > 100 µM | [11] > 100 µM | [12] > 100 µM | [19] > 100 µM | [13] > 100 µM | [14] > 100 µM | [15] > 100 µM | [16] > 100 µM

COc1ccccc1/N=N/C(=N\NC(=O)c1ccc(C)cc1)c1ccc(N(CCC#N)CCC#N)cc1C
inactive: [1] 40.4 µM | [2] 24.1 µM | [3] 70.3 µM | [4] 18.7 µM | [5] 33.7 µM | [6] 43.6 µM | [7] 48.5 µM | [8] 28.2 µM | [9] 39.7 µM | [17] 43.9 µM | [18] 40.9 µM | [10] 97.3 µM | [11] 15.7 µM | [19] 32.3 µM | [13] > 100 µM | [14] 42.3 µM | [15] 25.4 µM | [20] 35 µM | [16] 40.9 µM

C=CC[P@@]1(=O)O[C@H](c2ccccc2)C(C)N1C(C)C (stereo partly specified)
inactive: [1] > 100 µM | [2] > 100 µM | [3] > 100 µM | [4] > 100 µM | [5] > 100 µM | [6] > 100 µM | [7] > 100 µM | [8] > 100 µM | [9] > 100 µM | [17] > 100 µM | [18] > 100 µM | [10] > 100 µM | [12] > 100 µM | [19] > 100 µM | [14] > 100 µM | [15] > 100 µM | [16] > 100 µM

COc1cc(/C=C/c2ccc(OC(C)=O)cc2)cc(OC)c1OC
inactive: [1] 19.1 µM | [3] 25.4 µM | [4] 22.6 µM | [5] 32.4 µM | [6] 22.8 µM | [7] 26.6 µM | [9] 34.9 µM | [17] 28 µM | [18] 29.2 µM | [10] 34 µM | [11] 27.8 µM | [12] 32.3 µM | [19] 26.1 µM | [13] 30 µM | [14] 31.2 µM | [15] 26 µM | [16] 26.1 µM
